“Also recorded” adds a separate entry of the source.
Tests used:
L-type Ca^2+ current = assay: Whole-cell voltage clamp, L-type Ca2+ current in heart cells of chick embryos; assay type: cell-based; conditions: for overall effect on L-type Ca2+ channel: summary in words
Description: Single cells of different types in culture were prepared from biopsies of human, chick and rabbit. Known and accepted methods for the isolation of fast Na^+ current, T, L and R-type Ca^2+ channels as well as delayed outward K^+ current were used (Bkaily 1994, supra).
The compounds to be tested are added to the appropriate extracellular solution after recording a stable ionic current or normal steady-state level of […]. The effect of different concentrations of compounds are tested on the different type of current and [Ca]i of the different cell types. The effect of each concentration of the compounds in function of the time of exposure are then determined. Once the steady-state effect is reached, the second concentration is added, etc.
In another series of experiments (n=5), the effect of different concentrations of MV8608 (10^−11 to 10^−6M) were tested on the L-type ICa of heart cells of chick embryos using the whole-cell and experimental conditions and protocols described elsewhere by the inventors (Bkaily G. et al., 1993, supra). As for the T-type ICa, the L-type ICa was not affected by 10^−11 to 10^−10M MV8608.
In another series of experiments (n=4), we tested the effect of MV8612 on the L-type Ca^2+ current (ICa) in chick embryonic heart cells using the whole-cell voltage clamp technique referred to above. Superfusion with 10^−9M of MV8612 decreased ICa amplitude by 10% and increasing the concentration of the compound up to 10^−8M further decreased the current amplitude by 25%. Higher concentration of MV8612 (10^−7M) decreased the ICa amplitude by 62%.

R-type Ca^2+ channel [1] = assay: Fura-2 total [Ca]i, R-type channel stimulation-induced sustained increase, pooled cell types; assay type: cell-based, chick, human, rabbit
Text: (§1) This sustained increase of Ca^2+ induced by depolarization of the cell membrane or hormones such as PAF, ET-1 and bradykinin is due to the increase of Ca^2+ influx through the R-type Ca^2+ channels at the sarcolemmal membrane and/or the nuclear membrane (Bkaily G., 1994, supra; 1996, supra; 1997a–d, supra). Using Ca^2+ fluorescence probes Fura-2 or Fluo-3 and 2 and three-dimension Ca^2+ imaging techniques (Bkaily G., 1994, supra; 1996, supra; 1997a–d, supra), the effect of hormones and drugs could be easily tested. These two methods are used with single cells of different types as described above.
(§2) In another series of experiments we tested the effect of MV8608 (10^−9M) on R-type Ca^2+ channels stimulation-induced sustained increase of total intracellular Ca^2+ by sustained depolarization (FIGS. 15 to 19), by PAF (10^−9M) (FIGS. 16 to 19 and 21 to 22), by ET-1 (10^−9M) (FIGS. 16 and 19) and bradykinin (BK, 10^−6M) (FIGS. 20 and 21), in embryonic chick heart cells (FIGS. 15, 16, 19 and 20), 19-week-old human fetal heart cells (FIGS. 15, 17, 18 and 20), rabbit aortic vascular smooth muscle (VSM) cells (FIGS. 20 and 21), human aortic VSM cell-line (FIG. 23) and freshly isolated (FIG. 22) as well as in freshly isolated aortic endothelial cells (FIG. 22).
(§3) Using Fura-2 [Ca]i measurement technique, in one series of experiments we tested the effect of MV8612 (10^−9M) on the stimulation of R-type Ca^2+-induced sustained increase of [Ca]i by sustained depolarization (FIGS. 26 and 27), PAF (10^−9M, FIG. 34) and ET-1 (FIGS. 33 and 34).

R-type Ca^2+ channel [2] = assay: Fura-2 [Ca]i, embryonic chick heart cells; assay type: cell-based; conditions: 10^−9M, sustained depolarization (KCl 30 mM), PAF 10^−9M, ET-1 10^−9M
Text: as §1
as §2, with “22). […]” for “22).”

R-type Ca^2+ channel [3] = assay: Fura-2 [Ca]i, human aortic vascular smooth muscle cells (cell line and freshly isolated); assay type: cell-based; conditions: for sustained increase of [Ca]i induced by high PAF: PAF 10^−7M
Text: as §1, §2
In some experiments, the stimulation of the R-type Ca^2+ channel was elevated by increasing the concentration of PAF from 10^−9M up to 10^−7. […] Only a concentration of 10^−6M of MV8608 was able to block the high PAF effect on the sustained increase of [Ca]i (FIG. 23).
as §3

[4] = tested on: human aortic vascular smooth muscle cell line; assay: Spontaneous proliferation of human aortic vascular smooth muscle cell line; assay type: cell-based; conditions: 10^−8M
pleurisy in mice = assay: Murine model of pleurisy; assay type: in vivo; conditions: for neutrophil cells, carrageenan pleurisy / total cells, carrageenan pleurisy: MV 8612 30 and 60, MV 8608 30, i.p.
Description: To assess further the anti-inflammatory action of MV 8612 and MV 8608, their effects against the inflammatory responses caused by several mediators of inflammation in a murine model of pleurisy were tested (Saleh et al., 1996, Br. J. Pharmacol. 118:811–819). In addition, both compounds were tested against the increase of vascular permeability caused by bradykinin in the rat skin (Neves et al., 1993b, Phytotherapy Research. 7:356–362).

Structure (SMILES): C[C@]12CC[C@H](O)CC1=CC[C@@H]1[C@@H]2CC[C@]2(C)[C@H]3[C@@H]4OC[C@H]3O[C@@H](O)[C@]12O4 [MV8608, (15R, 16R, 20S)-14, 16:15,20:16,21-triepoxi-15,16-seco 14β, 17α-pregn-5-ene-3β, 15-diol]
- change of L-type ICa amplitude effect at higher concentration (L-type Ca^2+ current; 5×10^−7M): further slight increase
- decrease of L-type ICa amplitude (L-type Ca^2+ current; 10^−9M): 10%
- effect on L-type ICa (L-type Ca^2+ current; 10^−11 to 10^−10M): not affected
- overall effect on L-type Ca2+ channel (L-type Ca^2+ current): very weak depressor; also recorded: relative weak depressing effect
- time to complete block of sustained increase of [Ca]i (R-type Ca^2+ channel [1]; 10^−9M): 4 to 5 min
- sustained increase of [Ca]i via activation of R-type Ca2+ channel (R-type Ca^2+ channel [1]; 10^−9M, sustained depolarization, ET-1 10^−9M, PAF 10^−9M, BK 10^−6M): completely blocked; also recorded: blockade
- block of R-type Ca2+ channel across cell types (R-type Ca^2+ channel [1]; incl. MG63, FAOS-2, human VSM, endothelial cells, T-lymphocytes, platelets, AOSMC-9): blocked the R-type Ca^2+ channel in all cell types used
- sustained increase of [Ca]i (R-type Ca^2+ channel [2]): blockade
- PAF induced sustained increase of [Ca]i (R-type Ca^2+ channel [3]; 10^−9M, PAF 10^−9M, freshly isolated human aortic VSM cells): blockade
- sustained increase of [Ca]i induced by high PAF (R-type Ca^2+ channel [3]; MV8608 10^−6M, human aortic VSM cell line): able to block; also recorded: blockade
- sustained increase of [Ca]i induced by high PAF (R-type Ca^2+ channel [3]; MV8608 10^−9M): failed to significantly decrease
- spontaneous proliferation [4]: significantly decreased
- mononuclear cells influx, PAF pleurisy (pleurisy in mice; 30, i.p.): antagonised significantly
- plasma extravasation, PAF pleurisy (pleurisy in mice; 30, i.p.): antagonised significantly
- neutrophil cells, carrageenan pleurisy (pleurisy in mice): inhibited significantly
- total cells, carrageenan pleurisy (pleurisy in mice): inhibited significantly

Structure (SMILES): COC1CC(OC2C(C)OC(O[C@H]3CC[C@@]4(C)C(=CC[C@@H]5[C@@H]4CC[C@]4(C)[C@H]6[C@@H]7OC[C@H]6O[C@@H](O)[C@]54O7)C3)CC2OC)OC(C)C1OC1CC(OC)C(OC2CC(OC)C(OC3OC(C)C(OC(C)=O)C(OC)C3OC(C)=O)C(C)O2)C(C)O1 (stereo partly shown) [MV8612]
- decrease of L-type ICa amplitude (L-type Ca^2+ current; 10^−7M): 62%
- decrease of L-type ICa amplitude (L-type Ca^2+ current; 10^−8M): 25%
- decrease of L-type ICa amplitude (L-type Ca^2+ current; 10^−9M): 10%
- overall effect on L-type Ca2+ channel (L-type Ca^2+ current): more potent L-type Ca^2+ channel antagonist properties than that of MV8608
- sustained increase of [Ca]i induced by sustained depolarization and hormones (R-type Ca^2+ channel [1]; 10^−9M, PAF 10^−9M, ET-1): significantly decreased
- sustained increase of [Ca]i (R-type Ca^2+ channel [2]): blockade
- prevention of sustained increase of [Ca]i (R-type Ca^2+ channel [3]; 10^−8M, KCl 30 mM and PAF 10^−7M, human aortic VSM cell line): found to prevent; also recorded: preventive effect
- spontaneous proliferation [4]: significantly decreased
- plasma extravasation, carrageenan pleurisy (pleurisy in mice; 30 and 60, i.p., 1 h prior): significantly inhibited
- neutrophil cells, carrageenan pleurisy (pleurisy in mice): significantly inhibited
- total cells, carrageenan pleurisy (pleurisy in mice): significantly inhibited
- inflammatory response caused by PAF acether (pleurisy in mice; same range of dose, i.p.): did not affect significantly
